Like-named read-outs stand apart in the source and are kept apart here.
Key:
B-lineage ALL cells = test: cells; conditions: Homo sapiens
Source text: Blood and bone marrow samples were obtained from 35 patients with B-lineage ALL (Table SI) treated at the National Cancer Institute (NCI), St Jude Children's Research Hospital (SJCRH) or Johns Hopkins Hospital (JHH) with informed consent. The majority (n=22) were obtained from individuals with multiply relapsed ALL who were referred to the NCI for Phase I clinical trial participation. Thirteen patient samples from initial diagnosis were randomly selected from those available in the tumor banks at SJCRH and JHH. Thirty-three cases were characterized as pre-B ALL by flow cytometry and two as Burkitt-type/mature B-cell ALL. In all cases, >80% blasts expressed CD19 and CD22 antigens by flow cytometry. Cells were cryopreserved in RPMI-1640 medium with 10% fetal bovine serum (FBS) and 10% dimethyl sulfoxide.
Briefly, human bone marrow stromal cells that had been immortalized by telomerase transfection (developed at St Jude Children's Research Hospital) were cultured in RPMI-1640 medium (Invitrogen, Carlsbad, Calif., USA) with 10% fetal calf serum (Sigma-Aldrich, St Louis, Mo., USA). 2×10^4 Stromal cells were plated into each well of flat-bottomed 96-well plates and cultured until confluent. On day 1 of the assay, ALL cells were resuspended in RPMI-1640 medium, 10% heat-inactivated FBS, glutamine (1×) and sodium pyruvate (1×). 3×10^5 ALL cells were added to each well of stroma-coated plates. […] SS1P (50 ng/mL), an antimesothelin Pseudomonas immunotoxin, was used as a negative control. The cytotoxicity of dexamethasone (10 μmol/L) was also tested in this assay. Cells were incubated for a further 72 h in a humidified atmosphere at 37° C. with 5% CO2.
The cells were harvested by vigorous pipetting, transferred to Falcon tubes (Cat. No. 352052; BD Biosciences, San Jose, Calif., USA) and labelled with mouse anti-human CD19 antibody conjugated to fluorescein isothiocyanate (Cat. No. 555412; BD Pharmingen, San Jose, Calif., USA). […] The cells were analysed with a FACScalibur flow cytometer in combination with CellQuest (Becton Dickinson, Franklin Lakes, N.J., USA) and FlowJo software (Tree Star Inc., Ashland, Oreg., USA).
Viability was assessed by setting gates based on the light scatter properties of the blasts. Due to spontaneous cell death, the relative percentage of viable cells at the end of the assay was calculated using the following formula: (no. of CD19^+ viable cells recovered in test well/no. of CD19^+ viable cells in untreated well×100). […]
An exact Wilcoxon rank sum test was used to determine the statistical significance of the difference in unpaired observations between two groups of pediatric patients. […] Correlations between parameters were evaluated using Spearman rank correlation analysis.

[1] = tested on: human bone marrow stromal cells; conditions: 10 μmol/L, 72 h
Procedure: 2×10^4 Stromal cells were plated into each well of flat-bottomed 96-well plates and cultured until confluent. On day 1 of the assay, ALL cells were resuspended in RPMI-1640 medium, 10% heat-inactivated FBS, glutamine (1×) and sodium pyruvate (1×). 3×10^5 ALL cells were added to each well of stroma-coated plates. […] SS1P (50 ng/mL), an antimesothelin Pseudomonas immunotoxin, was used as a negative control. The cytotoxicity of dexamethasone (10 μmol/L) was also tested in this assay. Cells were incubated for a further 72 h in a humidified atmosphere at 37° C. with 5% CO2.
At the end of the assay, the stromal cells were incubated with WST-1.

C[C@@H]1C[C@H]2[C@@H]3CCC4=CC(=O)C=C[C@]4(C)[C@@]3(F)[C@@H](O)C[C@]2(C)[C@@]1(O)C(=O)CO [dexamethasone, Dexamethasone]
viability at 10 µM (B-lineage ALL cells; 72 h, read-out: percentage of viable ALL cells, range, 10 μmol/l, 72 h): 4 to 158% | viability at 10 µM (B-lineage ALL cells; read-out: percentage of viable ALL cells, median, 10 μmol/l, ALL samples from diagnosis): 29% | viability at 10 µM (B-lineage ALL cells; read-out: percentage of viable ALL cells, median, 10 μmol/l, all samples): 40% | viability at 10 µM (B-lineage ALL cells; read-out: percentage of viable ALL cells, median, 10 μmol/l, relapse samples): 42% | stromal cells compared to untreated controls (WST-1) [1]: no difference
